Test results as given in patent US12227496B2 (BRISTOL-MYERS SQUIBB COMPANY, priority 2019, dated 2025).
pEC50: −log10 of the molar value.

Molecular target: T1, human FXR (Homo sapiens, UniProt Q96RI1)
T1 construct: expressed in transfected cells; host or cells: HEK293 cells stably carrying a 5xGal4-response-element firefly luciferase reporter, transiently transfected with pcDNA3.1-Gal4-FXR
T1 sequence (Q96RI1 262-486 limits assumed): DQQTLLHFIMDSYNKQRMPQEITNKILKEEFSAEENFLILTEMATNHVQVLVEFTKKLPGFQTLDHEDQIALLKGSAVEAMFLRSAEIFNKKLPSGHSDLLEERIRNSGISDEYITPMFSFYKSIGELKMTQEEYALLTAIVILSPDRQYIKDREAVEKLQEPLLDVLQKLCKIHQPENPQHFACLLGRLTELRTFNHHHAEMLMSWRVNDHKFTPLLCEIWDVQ
Assay: transient human FXR/Gal4-luciferase reporter assay
Assay type: cell-based
Details: Gal4-hFXR LBD fusion, luciferase reporter in HEK293 cells; response relative to 8 μM GW-4064
Protocol: A Gal4-hFXR fusion construct reporter system was used as the primary assay to characterize compound activity. A construct including 5 copies of the Gal4 promoter response element upstream of a firefly luciferase reporter cDNA was stably expressed in HEK293 cells. This reporter cell line was maintained in Dulbecco's Modified Eagle's medium (DMEM; Gibco) supplemented with 1% penicillin-streptomycin (P/S) solution, 500 μg/mL Zeocin and 10% charcoal/dextran-treated fetal bovine serum (cs-FBS) at 37° C. in a humidified 5% CO2 atmosphere. […] The day prior to transfection, the reporter cells in culture are detached from the plate with trypsin and plated into a T75 flask at a sufficient density to achieve approximately 90% confluence the next morning. […] The mixture is further diluted with 10 mL of a solution comprised of DMEM, 10% cs-FBS, and 1% P/S immediately prior to transferring to the cells. The maintenance culture media is aspirated from the cells and the final transfection mixture is added before the cells are incubated overnight at 37° C. in a humidified 5% CO2 atmosphere. This protocol can be scaled up, and the transiently transfected cells can be cryopreserved in an assay-ready format. For compound testing, 100 nL of the compounds (serial dilutions in DMSO) are dispensed with an Echo acoustic dispenser (Labcyte) into the wells of a Corning/Costar clear bottom 384-well white plate. The transfected cells are harvested, counted, and diluted such that 10-25,000 cells in 25 μL are plated into each well of the 384-well compound assay plate. The compound-treated cells are incubated overnight at 37° C. in a humidified 5% CO2 atmosphere. The next morning 25 μL of Steady-Glo (Promega) are added to each well of the plate, the mixture is incubated for 15 min. with shaking, and luminescence is measured on an Envision (Perkin Elmer) plate reader.

Row | pEC50 | SMILES
1 | 6.45 | O=C(C1CCC(F)(F)CC1)N(CC12CCC(c3nc(C4CC4)no3)(CC1)CC2)c1cccc(-c2cnc(C3CC3)o2)c1 [Example 26, N-((4-(3-cyclopropyl-1,2,4-oxadiazol-5-yl)bicyclo[2.2.2]octan-1-yl)methyl)-N-(3-(2-cyclopropyloxazol-5-yl)phenyl)-4,4-difluorocyclohexane-1-carboxamide]
2 | 7.12 | CCOc1cc(-c2cccc(N(CC34CCC(c5nc(C6CC6)no5)(CC3)CC4)C(=O)C3CCCCC3)c2)no1 [Example 27, N-((4-(3-cyclopropyl-1,2,4-oxadiazol-5-yl)bicyclo[2.2.2]octan-1-yl)methyl)-N-(3-(5-ethoxyisoxazol-3-yl)phenyl)cyclohexanecarboxamide]
3 | 7.47 | CCCc1ncc(-c2cccc(N(CC34CCC(c5nc(C6CC6)no5)(CC3)CC4)C(=O)C3CCCCC3)c2)o1 [Example 28, N-((4-(3-cyclopropyl-1,2,4-oxadiazol-5-yl)bicyclo[2.2.2]octan-1-yl)methyl)-N-(3-(2-propyloxazol-5-yl)phenyl)cyclohexanecarboxamide]
4 | 7.28 | CCCc1ncc(-c2cccc(N(CC34CCC(c5nc(C6CC6)no5)(CC3)CC4)C(=O)C3CCOCC3)c2)o1 [Example 29, N-((4-(3-cyclopropyl-1,2,4-oxadiazol-5-yl)bicyclo[2.2.2]octan-1-yl)methyl)-N-(3-(2-propyloxazol-5-yl)phenyl)tetrahydro-2H-pyran-4-carboxamide]
5 | 5.92 | CCOC(=O)c1nc(-c2cccc(N(CC34CCC(c5nc(C6CC6)no5)(CC3)CC4)C(=O)C3CCCCC3)c2)cs1 [Example 31, Ethyl 4-(3-(N-((4-(3-cyclopropyl-1,2,4-oxadiazol-5-yl)bicyclo[2.2.2]octan-1-yl)methyl)cyclohexanecarboxamido)phenyl)thiazole-2-carboxylate]
6 | 6.49 | CC(C)(O)c1nc(-c2cccc(N(CC34CCC(c5nc(C6CC6)no5)(CC3)CC4)C(=O)C3CCCCC3)c2)cs1 [Example 32, N-((4-(3-cyclopropyl-1,2,4-oxadiazol-5-yl)bicyclo[2.2.2]octan-1-yl)methyl)-N-(3-(2-(2-hydroxypropan-2-yl)thiazol-4-yl)phenyl)cyclohexanecarboxamide]
7 | 6.02 | Cc1noc(C23CCC(CN(C(=O)C4CCCCC4)c4cccc(-c5cnc(C6CCOCC6)o5)c4)(CC2)CC3)n1 [Example 33, N-((4-(3-methyl-1,2,4-oxadiazol-5-yl)bicyclo[2.2.2]octan-1-yl)methyl)-N-(3-(2-(tetrahydro-2H-pyran-4-yl)oxazol-5-yl)phenyl)cyclohexanecarboxamide]
8 | 6.67 | O=C(C1CCCCC1)N(CC12CCC(c3nc(C4CC4)no3)(CC1)CC2)c1cccc(-c2cnc(C3CCOCC3)o2)c1 [Example 34, N-((4-(3-cyclopropyl-1,2,4-oxadiazol-5-yl)bicyclo[2.2.2]octan-1-yl)methyl)-N-(3-(2-(tetrahydro-2H-pyran-4-yl)oxazol-5-yl)phenyl)cyclohexanecarboxamide]
9 | 6.29 | Cc1cnc(C23CCC(CN(C(=O)C4CCCCC4)c4cccc(-c5nc(C6CC6)no5)c4)(CC2)CC3)o1 [Example 35, N-(3-(3-cyclopropyl-1,2,4-oxadiazol-5-yl)phenyl)-N-((4-(5-methyloxazol-2-yl)bicyclo[2.2.2]octan-1-yl)methyl)cyclohexanecarboxamide]
10 | 6.28 | O=C(C1CCOCC1)N(CC12CCC(c3nc(C4CC4)no3)(CC1)CC2)c1cccc(-c2nc(C(F)F)co2)c1 [Example 36, N-((4-(3-cyclopropyl-1,2,4-oxadiazol-5-yl)bicyclo[2.2.2]octan-1-yl)methyl)-N-(3-(4-(difluoromethyl)oxazol-2-yl)phenyl)tetrahydro-2H-pyran-4-carboxamide]
11 | 6.78 | O=C(C1CCCCC1)N(CC12CCC(c3nc(C4CC4)no3)(CC1)CC2)c1cccc(-c2nc(C(F)F)co2)c1 [Example 37, N-((4-(3-cyclopropyl-1,2,4-oxadiazol-5-yl)bicyclo[2.2.2]octan-1-yl)methyl)-N-(3-(4-(difluoromethyl)oxazol-2-yl)phenyl)cyclohexanecarboxamide]
12 | 5.36 | CC(C)(C)OC(=O)N1CCC(C(=O)N(CC23CCC(c4nc(C5CC5)no4)(CC2)CC3)c2cccc(-c3nc(C(F)F)co3)c2)CC1 [Example 38, tert-butyl 4-(((4-(3-cyclopropyl-1,2,4-oxadiazol-5-yl)bicyclo[2.2.2]octan-1-yl)methyl)(3-(4-(difluoromethyl)oxazol-2-yl)phenyl)carbamoyl) piperidine-1-carboxylate]
13 | 6.89 | CCOc1nnc(-c2cccc(N(CC34CCC(c5nc(C6CC6)no5)(CC3)CC4)C(=O)C3CCC(F)(F)CC3)c2)o1 [Example 39, N-((4-(3-cyclopropyl-1,2,4-oxadiazol-5-yl)bicyclo[2.2.2]octan-1-yl)methyl)-N-(3-(5-ethoxy-1,3,4-oxadiazol-2-yl)phenyl)-4,4-difluorocyclohexane-1-carboxamide]
14 | 7.11 | O=C(C1CCOCC1)N(CC12CCC(c3nc(C4CC4)no3)(CC1)CC2)c1cccc(-c2cc(C3CC3)on2)c1 [Example 40, N-((4-(3-cyclopropyl-1,2,4-oxadiazol-5-yl)bicyclo[2.2.2]octan-1-yl)methyl)-N-(3-(5-cyclopropylisoxazol-3-yl)phenyl)tetrahydro-2h-pyran-4-carboxamide]
15 | 6.64 | O=C(C1CCOCC1)N(CC12CCC(c3nc(CC4CC4)no3)(CC1)CC2)c1cccc(-c2nc(CC3CC3)no2)c1 [Example 41, N-((4-(3-(cyclopropylmethyl)-1,2,4-oxadiazol-5-yl)bicyclo[2.2.2]octan-1-yl)methyl)-N-(3-(3-(cyclopropylmethyl)-1,2,4-oxadiazol-5-yl)phenyl)tetrahydro-2H-pyran-4-carboxamide]
16 | 6.27 | O=C(C1CCC(F)(F)CC1)N(CC12CCC(c3nc(CC4CC4)no3)(CC1)CC2)c1cccc(-c2nc(CC3CC3)no2)c1 [Example 42, N-((4-(3-(cyclopropylmethyl)-1,2,4-oxadiazol-5-yl)bicyclo[2.2.2]octan-1-yl)methyl)-N-(3-(3-(cyclopropylmethyl)-1,2,4-oxadiazol-5-yl)phenyl)-4,4-difluorocyclohexane-1-carboxamide]
17 | 6.42 | O=C(C1CCC(F)(F)CC1)N(CC12CCC(c3nc(C4CC4)no3)(CC1)CC2)c1cccc(-c2nc(CC3CC3)no2)c1 [Example 43, N-((4-(3-cyclopropyl-1,2,4-oxadiazol-5-yl)bicyclo[2.2.2]octan-1-yl)methyl)-N-(3-(3-(cyclopropylmethyl)-1,2,4-oxadiazol-5-yl)phenyl)-4,4-difluorocyclohexane-1-carboxamide]
18 | 6.93 | O=C(C1CCOCC1)N(CC12CCC(c3nc(C4CC4)no3)(CC1)CC2)c1cccc(-c2nc(CC3CC3)no2)c1 [Example 44, N-((4-(3-cyclopropyl-1,2,4-oxadiazol-5-yl)bicyclo[2.2.2]octan-1-yl)methyl)-N-(3-(3-(cyclopropylmethyl)-1,2,4-oxadiazol-5-yl)phenyl)tetrahydro-2H-pyran-4-carboxamide]
19 | 6.56 | O=C(C1CCOCC1)N(CC12CCC(c3nc(CC4CC4)no3)(CC1)CC2)c1cccc(-c2nc(C3CC3)no2)c1 [Example 45, N-(3-(3-cyclopropyl-1,2,4-oxadiazol-5-yl)phenyl)-N-((4-(3-(cyclopropylmethyl)-1,2,4-oxadiazol-5-yl)bicyclo[2.2.2]octan-1-yl)methyl)tetrahydro-2H-pyran-4-carboxamide]
20 | 6.20 | O=C(C1CCC(F)(F)CC1)N(CC12CCC(c3nc(CC4CC4)no3)(CC1)CC2)c1cccc(-c2nc(C3CC3)no2)c1 [Example 46, N-(3-(3-cyclopropyl-1,2,4-oxadiazol-5-yl)phenyl)-N-((4-(3-(cyclopropylmethyl)-1,2,4-oxadiazol-5-yl)bicyclo[2.2.2]octan-1-yl)methyl)-4,4-difluorocyclohexane-1-carboxamide]
21 | 6.92 | COCc1nc(-c2cccc(N(CC34CCC(c5nc(C6CC6)no5)(CC3)CC4)C(=O)C3CCOCC3)c2)cs1 [Example 47, N-((4-(3-cyclopropyl-1,2,4-oxadiazol-5-yl)bicyclo[2.2.2]octan-1-yl)methyl)-N-(3-(2-(methoxymethyl)thiazol-4-yl)phenyl)tetrahydro-2H-pyran-4-carboxamide]
22 | 6.07 | COCc1nc(-c2cccc(N(CC34CCC(c5nc(C6CC6)no5)(CC3)CC4)C(=O)C3CCN(C(=O)OC(C)(C)C)CC3)c2)cs1 [Example 48, tert-butyl 4-(((4-(3-cyclopropyl-1,2,4-oxadiazol-5-yl)bicyclo[2.2.2]octan-1-yl)methyl)(3-(2-(methoxymethyl)thiazol-4-yl)phenyl)carbamoyl)piperidine-1-carboxylate]
